What was measured:
[1] = target: T1, ER (Homo sapiens, UniProt P03372); assay: ER transactivation with ARA70 in DU145 cells (Example 3); assay type: cell-based; set-up: expressed in transfected cells; host or cells: DU145
T1 sequence (P03372 1-595): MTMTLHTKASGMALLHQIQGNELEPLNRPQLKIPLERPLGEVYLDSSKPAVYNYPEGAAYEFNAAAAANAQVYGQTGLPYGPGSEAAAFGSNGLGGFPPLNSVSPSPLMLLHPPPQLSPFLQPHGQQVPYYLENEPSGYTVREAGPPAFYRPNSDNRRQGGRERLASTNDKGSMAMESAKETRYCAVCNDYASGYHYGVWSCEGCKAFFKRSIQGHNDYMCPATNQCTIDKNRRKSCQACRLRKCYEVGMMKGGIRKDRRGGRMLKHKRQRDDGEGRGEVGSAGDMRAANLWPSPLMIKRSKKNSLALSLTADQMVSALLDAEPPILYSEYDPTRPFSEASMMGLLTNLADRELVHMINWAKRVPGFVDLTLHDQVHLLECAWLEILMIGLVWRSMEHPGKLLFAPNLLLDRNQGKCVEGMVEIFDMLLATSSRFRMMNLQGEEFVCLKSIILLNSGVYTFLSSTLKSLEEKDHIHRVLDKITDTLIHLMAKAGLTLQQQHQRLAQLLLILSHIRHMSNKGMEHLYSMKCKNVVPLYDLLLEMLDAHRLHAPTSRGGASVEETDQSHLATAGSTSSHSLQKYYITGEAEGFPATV
Protocol: 411. Human prostate cancer DU145 and PC-3 cells were maintained in […] (DMEM) containing penicillin (25 U/ml), streptomycin (25 μg/ml), and 5% fetal calf serum (FCS). Human LNCaP cells were maintained in RPMI containing penicillin (25 U/ml), streptomycin (25 μg/ml), and 10% FCS. Transfections were performed using the calcium phosphate precipitation method, as previously described (Dynlacht et al. (1991) Cell 66, 563-576). Briefly, 4×10^5 cells were plated on 60-mm dishes 24 hours before transfection, and the medium was changed to DMEM with 5% charcoal-dextran stripped FCS (CS-FBS) one hour before transfection. Transfection medium contained a constant amount of reporter plasmid and indicated amounts of pSG5-receptor, ARA70, or pCMX-GAL fusion construct using pSG5 as a carrier to provide equal amounts of transfected DNA. Twenty-four hours after transfection, the medium was changed again, and the cells were treated with DHT or other treatments. After another 24 hours, the cells were harvested for chloramphenicol transferase (CAT) or luciferase assays. At least three independent experiments were carried out in each case. Superfect (Qiagen) was used for transfection in LNCaP cells. The transfection conditions followed the manufacturer's protocol. […]

[2] = tested on: AR; assay: Immunocytofluorescence, semi-quantitative nuclear AR staining in COS-1 cells; assay type: cell-based; settings: 10 nM DHT, p<0.0005
Protocol: 415. COS-1 cells were seeded on two-well Labtek II slides (Nalge) 24 hours before transfection. Two micrograms of DNA per 10^5 cell was transfected with the AR, with or without full length ARA70 (ARA70-FL) using FuGENE6 transfection reagent (Roche). […] Immunostaining was performed by incubation with anti-AR polyclonal antibody (NH27) or anti-ARA70 mouse monoclonal antibody (CC70), followed by incubation with either fluorescence-conjugated goat anti-rabbit or anti-mouse antibodies (ICN). The red signal represents the AR and the green signal represents ARA70.
416. Three hundred cells with normal morphologies and clear AR nuclear translocation were scored for AR staining using a fluorescence microscope. Cells were scored on a scale of one to five, with one representing the lowest AR staining intensity above the background level. The cells were then separated into two groups based on the presence or absence of ARA70.
417. The mean AR staining intensity and standard deviation were then calculated for the ARA70 negative and positive populations. Using […], a two sample t-test (assuming unequal variances) was then performed to determine if the difference in the mean AR staining intensities in the two populations was statistically significant (α=0.05).
Target sequence in this assay (P10275 with tags, fused parts or gaps DEL79-80/DUP473-473): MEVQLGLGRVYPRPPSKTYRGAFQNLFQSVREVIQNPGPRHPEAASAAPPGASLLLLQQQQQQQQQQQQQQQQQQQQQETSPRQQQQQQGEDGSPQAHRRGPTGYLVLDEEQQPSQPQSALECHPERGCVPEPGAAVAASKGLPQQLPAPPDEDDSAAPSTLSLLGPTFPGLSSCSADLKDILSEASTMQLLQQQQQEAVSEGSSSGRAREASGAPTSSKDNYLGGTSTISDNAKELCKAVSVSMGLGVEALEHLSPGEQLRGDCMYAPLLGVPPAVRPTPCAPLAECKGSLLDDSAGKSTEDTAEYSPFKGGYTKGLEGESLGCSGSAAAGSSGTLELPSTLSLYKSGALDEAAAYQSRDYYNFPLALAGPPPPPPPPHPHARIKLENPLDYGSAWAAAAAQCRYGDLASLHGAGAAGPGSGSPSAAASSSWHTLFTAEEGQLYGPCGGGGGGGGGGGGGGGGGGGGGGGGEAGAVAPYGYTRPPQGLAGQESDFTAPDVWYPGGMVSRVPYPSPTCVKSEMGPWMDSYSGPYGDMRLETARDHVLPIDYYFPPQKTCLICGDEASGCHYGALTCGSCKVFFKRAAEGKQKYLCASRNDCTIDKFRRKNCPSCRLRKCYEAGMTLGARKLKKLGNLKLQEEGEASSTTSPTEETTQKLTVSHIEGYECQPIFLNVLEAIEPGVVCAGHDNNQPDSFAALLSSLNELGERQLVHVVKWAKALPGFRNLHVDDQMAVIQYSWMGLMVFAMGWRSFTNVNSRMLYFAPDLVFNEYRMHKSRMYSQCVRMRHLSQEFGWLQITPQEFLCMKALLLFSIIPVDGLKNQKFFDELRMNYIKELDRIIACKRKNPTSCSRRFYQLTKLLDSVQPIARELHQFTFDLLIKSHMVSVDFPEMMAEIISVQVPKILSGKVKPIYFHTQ

[3] = tested on: AR; assay: AR transactivation reporter assay (CAT/luciferase) (Example 3); assay type: cell-based, human
Protocol: 21. […] Further adding GAL-DBD (lane 1 and 2) or GAL-DBD-ARA70N with wild type (lane 3 and 4) or mutant (lane 5-8) FXXLF motifs to the cells. (B) Effect of wild type and mutant FXXLF motifs ARA70N on AR transactivation in COS-1 cells. […] 0.5 ng SV40-Renila Luciferase was used as an internal control. Relative luciferase activity was calculated by dual luciferase system.
411. Human prostate cancer DU145 and PC-3 cells were maintained in Dulbecco's Minimum Essential Medium (DMEM) containing penicillin (25 U/ml), streptomycin (25 μg/ml), and 5% fetal calf serum (FCS). Human LNCaP cells were maintained in RPMI containing penicillin (25 U/ml), streptomycin (25 μg/ml), and 10% FCS. Transfections were performed using the calcium phosphate precipitation method, as previously described (Dynlacht et al. (1991) Cell 66, 563-576). Briefly, 4×10^5 cells were plated on 60-mm dishes 24 hours before transfection, and the medium was changed to DMEM with 5% charcoal-dextran stripped FCS (CS-FBS) one hour before transfection. Transfection medium contained a constant amount of reporter plasmid and indicated amounts of pSG5-receptor, ARA70, or pCMX-GAL fusion construct using pSG5 as a carrier to provide equal amounts of transfected DNA. […] After another 24 hours, the cells were harvested for chloramphenicol transferase (CAT) or luciferase assays. At least three independent experiments were carried out in each case. Superfect (Qiagen) was used for transfection in LNCaP cells. The transfection conditions followed the manufacturer's protocol. Cell extracts were prepared and assayed for CAT or luciferase activity (Promega) and normalized against β-galactosidase or Renilla luciferase activity as indicated. All data were the mean±SD results from three to six independent experiments.
Target sequence in this assay (P10275 whole entry): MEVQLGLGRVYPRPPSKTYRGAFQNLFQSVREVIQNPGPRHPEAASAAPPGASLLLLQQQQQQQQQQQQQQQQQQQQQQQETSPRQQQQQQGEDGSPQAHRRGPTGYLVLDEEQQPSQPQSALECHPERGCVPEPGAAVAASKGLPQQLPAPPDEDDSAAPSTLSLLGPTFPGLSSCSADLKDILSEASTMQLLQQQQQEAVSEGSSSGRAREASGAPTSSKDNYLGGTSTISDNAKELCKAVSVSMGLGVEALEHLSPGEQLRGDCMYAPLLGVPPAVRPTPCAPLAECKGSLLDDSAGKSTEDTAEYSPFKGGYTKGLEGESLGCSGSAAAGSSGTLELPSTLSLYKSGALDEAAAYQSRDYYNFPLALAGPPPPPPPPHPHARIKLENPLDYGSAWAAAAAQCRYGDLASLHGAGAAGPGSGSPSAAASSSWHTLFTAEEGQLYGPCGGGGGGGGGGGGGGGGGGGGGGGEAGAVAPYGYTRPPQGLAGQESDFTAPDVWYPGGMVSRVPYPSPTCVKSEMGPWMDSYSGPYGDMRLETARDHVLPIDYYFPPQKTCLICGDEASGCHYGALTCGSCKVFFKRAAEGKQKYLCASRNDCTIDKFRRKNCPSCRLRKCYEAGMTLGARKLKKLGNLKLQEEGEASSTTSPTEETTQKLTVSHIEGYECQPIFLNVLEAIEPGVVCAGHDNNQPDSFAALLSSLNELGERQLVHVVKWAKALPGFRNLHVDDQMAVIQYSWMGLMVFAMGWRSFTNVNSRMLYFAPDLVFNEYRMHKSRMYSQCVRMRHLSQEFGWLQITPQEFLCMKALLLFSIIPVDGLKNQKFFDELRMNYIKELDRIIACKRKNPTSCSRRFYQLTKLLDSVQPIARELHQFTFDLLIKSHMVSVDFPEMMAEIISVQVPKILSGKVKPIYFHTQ

enhancement of ER transactivation [1]: 2-3 fold | enhancement of AR transactivation ([3]; COS-1 cells): 8 fold | enhancement of AR transactivation ([3]; CV-1 cells): 8 fold | enhancement of AR transactivation ([3]; DU145 cells, depending on the ratio of AR to ARA70): 8-10 fold | enhancement of AR transactivation ([3]; PC-3 cells): 6 fold
Substance: ARA70: ligand-enhanced AR coregulator, full length ARA70
nuclear AR staining intensity [2]: significantly enhances nuclear AR staining intensity

— patent publication US20060270591A1, “Androgen receptor coregulators” (priority 2002, published 2006)
